One compound from patent publication US20150230474A1, “Use of Glyphosate to Control Clubroot Disease” (priority 2014, published 2015) can be followed below.

One series relates to VT500G canola plants. The series is described as follows: Growth impediment of canola seedlings after pre-seeding glyphosate treatment of potting mix. The class given is in vivo, Brassica napus. Here is the method:
(§1) Canola plants, cultivar Westar and the Roundup®-resistant transgenic line VT500G of Brassica napus, were used. Plants were grown in a phytotron at 22° C. with a light/dark photoperiod of 16 h/8 h (light intensity 120 μmol m^−2 s^−1).
(§2) Potting mix consisting of fine peat moss, vermiculite, gypsum, dolomitic limestone and starter nutrient (Sunshine Mix #3; pH 5.8-6.2; Sun Gro Horticulture Canada Ltd., Canada) in 13 cm diameter plastic pots was inoculated with P. brassicae spores. The P. brassicae infested potting soil was then irrigated with 350 ml of water or glyphosate (Roundup®, Monsanto Canada Inc.) solution to provide an application rate of 0 mg, 143, 286, or 572 mg of glyphosate per 13 cm pot containing 750 cm3 of potting mix. VT500G canola seeds were subsequently sown on the treated potting mix and allowed to grow at 22° C. with a light/dark photoperiod of 16 h/8 h for 65 days. Plant growth and clubroot symptom development were monitored over the incubation time course.

Series [1] concerns Plasmodiophora brassicae. Description: Pre-seeding treatment of P. brassicae infested potting mix, VT500G canola then sown. The class given is in vivo. The conditions noted are these: for plant growth / foliar symptoms of clubroot disease: 35 days post seeding; for early senescence: 60 days post seeding. Here is the method: (§3) An isolate of clubroot pathogen Plasmodiophora brassicae was obtained from infested canola fields in central Alberta. The pathogen population from this collection may represent a mixture of pathotypes, but pathotype 3 is expected to be predominant (Peng et al., 2011). The inoculum was propagated using a susceptible canola cv. Westar grown in the infested soil with spores. Fresh clubroot galls were harvested, air dried, and stored at 4° C., and were further used for fresh inoculum preparation. To extract spores, 2-5 g of air-dried galls were soaked in distilled water for a few hours to soften the tissues and then ground in a mortar with pestle. The resulting slurry was filtered through three layers of cheesecloth and the spore concentration was estimated under a microscope. Inoculum concentration of 1.0·10^7 resting spores/ml was used for inoculation.
as §1, §2

For series [2], the system named is Plasmodiophora brassicae. Description: Treatment of canola seedlings: potting mix irrigated with glyphosate solution, then inoculated with P. brassicae spores. The format is in vivo. Particulars: 572 mg/pot glyphosate, 15 days post-inoculation, VT500G canola. Here is the method: as §3
Canola plants, cultivar Westar and the glyphosate-resistant transgenic line VT500G of Brassica napus, were used. Plants were grown in a phytotron at 22° C. with a light/dark photoperiod of 16 h/8 h (light intensity 120 μmol m^−2 s^−1). […]

SMILES strings stand for the structures. “Also recorded” adds a separate entry of the source.

In the case of `O=C(O)CNCP(=O)(O)O` [glyphosate, N-(phosphonomethyl)glycine], in the series with VT500G canola plants (572 mg/pot, 12 days post seeding), the chlorosis of leaves result is “light chlorosis on true leaves”. Moreover, the growth retardation entry in the series on VT500G canola plants (572 mg/pot, 22 days post seeding) is reported as “slightly retarded growth”. The “growth impediment of seedlings” value in the series with VT500G canola plants (glyphosate-treated seedlings, early stages) was “Some growth retardation; also recorded: some growth impediment”. The “plant growth / foliar symptoms of clubroot disease” value in the series on Plasmodiophora brassicae [1] (143 mg/pot), in the series on Plasmodiophora brassicae [1] (286 mg/pot) and in the series with Plasmodiophora brassicae [1] (572 mg/pot) was “normal growth” each time. For the same compound, the early senescence result in the series on Plasmodiophora brassicae [1] (143 mg/pot) is recorded as “appeared less affected, albeit with some signs of early senescence; also recorded: showed an early senescence”; with Plasmodiophora brassicae [1] (286 mg/pot), “did not display early senescence”; in the series on Plasmodiophora brassicae [1] (572 mg/pot), “did not display early senescence”. The silique/seed production entry with Plasmodiophora brassicae [1] (143 mg/pot, 65 days post seeding) was “Abortions of silique development were frequently observed”; in the series on Plasmodiophora brassicae [1] (286 mg/pot, 65 days post seeding), “normal silique/seed production”; with Plasmodiophora brassicae [1] (572 mg/pot, 65 days post seeding), “normal silique/seed production”. For the same compound, the plant survival entry in the series on Plasmodiophora brassicae [1] (all glyphosate treatments (143, 286, 572 mg/pot), 65 days post seeding) is on record as “all glyphosate treated plants had survived”. In addition, the “incidence of clubroot disease” value in the series with Plasmodiophora brassicae [1] (drench application of glyphosate pesticide solution to inoculated potting mix, glyphosate-resistant canola) is “reduced the incidence of clubroot disease”. Besides, the “clubroot development in the root system” value with Plasmodiophora brassicae [2] is “prevented visible clubroot development”.
